According to the NIST ThermoML archive (doi:10.1021/je300234g):
Numbers after ± are expanded uncertainties.

Key:
[1] = Crystal; visual observation
[2] = relative permittivity at zero frequency (dimensionless); conditions: 101.3 kPa, Liquid, Parallel plate capacitor

| SMILES | Normal melting temperature [1] | relative permittivity at zero frequency ([2]; 295.65 K) | relative permittivity at zero frequency ([2]; 298.15 K) | relative permittivity at zero frequency ([2]; 300.65 K) | relative permittivity at zero frequency ([2]; 303.15 K) | relative permittivity at zero frequency ([2]; 305.65 K) | relative permittivity at zero frequency ([2]; 308.15 K) | relative permittivity at zero frequency ([2]; 310.65 K) | relative permittivity at zero frequency ([2]; 313.15 K) | relative permittivity at zero frequency ([2]; 315.65 K) | relative permittivity at zero frequency ([2]; 318.15 K) | relative permittivity at zero frequency ([2]; 320.65 K) | relative permittivity at zero frequency ([2]; 323.15 K) | relative permittivity at zero frequency ([2]; 325.65 K) | relative permittivity at zero frequency ([2]; 328.15 K) | relative permittivity at zero frequency ([2]; 330.65 K) | relative permittivity at zero frequency ([2]; 333.15 K) | relative permittivity at zero frequency ([2]; 335.65 K) | relative permittivity at zero frequency ([2]; 338.15 K) | relative permittivity at zero frequency ([2]; 340.65 K) | further results |
| --- | --- | --- | --- | --- | --- | --- | --- | --- | --- | --- | --- | --- | --- | --- | --- | --- | --- | --- | --- | --- | --- |
| C1COCCOCCOCCOCCO1 [1,4,7,10,13-pentaoxacyclopentadecane] | -20 ± 1 °C | 15.68 ± 0.16 | 15.48 ± 0.15 | 15.28 ± 0.15 | 15.08 ± 0.15 | 14.88 ± 0.15 | 14.69 ± 0.15 | 14.5 ± 0.15 | 14.31 ± 0.14 | 14.14 ± 0.14 | 13.96 ± 0.14 | 13.79 ± 0.14 | 13.63 ± 0.14 | 13.46 ± 0.13 | 13.3 ± 0.13 | 13.15 ± 0.13 | 13 ± 0.13 | – | – | – | relative permittivity at zero frequency ([2]; 273.15 K): 17.82 ± 0.18; relative permittivity at zero frequency ([2]; 275.65 K): 17.56 ± 0.18; relative permittivity at zero frequency ([2]; 278.15 K): 17.3 ± 0.17; relative permittivity at zero frequency ([2]; 280.65 K): 17.05 ± 0.17; relative permittivity at zero frequency ([2]; 283.15 K): 16.81 ± 0.17; relative permittivity at zero frequency ([2]; 285.65 K): 16.57 ± 0.17; relative permittivity at zero frequency ([2]; 288.15 K): 16.34 ± 0.16; relative permittivity at zero frequency ([2]; 290.65 K): 16.11 ± 0.16; relative permittivity at zero frequency ([2]; 293.15 K): 15.89 ± 0.16 |
| C1COCCOCCOCCOCCOCCO1 [1,4,7,10,13,16-hexaoxacyclooctadecane] | 43.4 ± 3 °C | – | – | – | – | – | – | – | – | 8.9 ± 0.09 | 8.86 ± 0.09 | 8.82 ± 0.09 | 8.77 ± 0.09 | 8.73 ± 0.09 | 8.69 ± 0.09 | 8.64 ± 0.09 | 8.59 ± 0.09 | 8.54 ± 0.09 | 8.49 ± 0.09 | 8.44 ± 0.08 | relative permittivity at zero frequency ([2]; 343.15 K): 8.39 ± 0.08; relative permittivity at zero frequency ([2]; 345.65 K): 8.34 ± 0.08; relative permittivity at zero frequency ([2]; 348.15 K): 8.29 ± 0.08; relative permittivity at zero frequency ([2]; 350.65 K): 8.24 ± 0.08; relative permittivity at zero frequency ([2]; 353.15 K): 8.19 ± 0.08 |
| C1COCCOCCOCCO1 [1,4,7,10-tetraoxacyclododecane] | 16 ± 1 °C | 10.95 ± 0.11 | 10.82 ± 0.11 | 10.7 ± 0.11 | 10.58 ± 0.11 | 10.45 ± 0.1 | 10.34 ± 0.1 | 10.22 ± 0.1 | 10.11 ± 0.1 | 10 ± 0.1 | 9.9 ± 0.1 | 9.79 ± 0.1 | 9.69 ± 0.1 | 9.59 ± 0.1 | 9.49 ± 0.1 | 9.41 ± 0.09 | 9.31 ± 0.09 | 9.22 ± 0.09 | 9.13 ± 0.09 | 9.04 ± 0.09 | relative permittivity at zero frequency ([2]; 343.15 K): 8.94 ± 0.09; relative permittivity at zero frequency ([2]; 345.65 K): 8.86 ± 0.09; relative permittivity at zero frequency ([2]; 348.15 K): 8.76 ± 0.09; relative permittivity at zero frequency ([2]; 350.65 K): 8.68 ± 0.09; relative permittivity at zero frequency ([2]; 353.15 K): 8.59 ± 0.09 |
